In patent publication US12077503B2, “Substituted cyclic amides and their use as herbicides” (FMC CORPORATION, priority 2015, dated 2024):

Experiments:
Type in all cases: in vivo
Kochia (Kochia scoparia) [1] = assay: Test A postemergence; conditions: Bassia scoparia, post-emergence, 240 h
Summary of the method: (§1)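 Seeded soil received test chemicals as a preemergence directed spray, and seedlings at one to two leaves, 2–10 cm tall, received them postemergence, in a non-phytotoxic, surfactant-containing solvent mixture. Pots were held in a greenhouse for approximately 10 d, then rated for injury from 0, no effect, to 100, complete control.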

[2] = test system: Galium (catchweed bedstraw, Galium aparine); assay: Test A postemergence; conditions: Galium, post-emergence, 240 h
Summary of the method: as §1

[3] = test system: barnyardgrass (Echinochloa crus-galli); assay: Test A postemergence; conditions: Echinochloa crus-galli, post-emergence, 240 h
Summary of the method: as §1

corn (Zea mays) = assay: Test A postemergence; conditions: Zea mays, post-emergence, 240 h
Summary of the method: as §1

[4] = test system: pigweed (Amaranthus retroflexus); assay: Test A postemergence; conditions: Amaranthus retroflexus, post-emergence, 240 h
Summary of the method: as §1

[5] = test system: wheat (Triticum aestivum); assay: Test A postemergence; conditions: Triticum aestivum, post-emergence, 240 h
Summary of the method: as §1

[6] = test system: ryegrass, Italian (Italian ryegrass, Lolium multiflorum); assay: Test A postemergence; conditions: Lolium multiflorum, post-emergence, 240 h
Summary of the method: as §1

[7] = test system: giant foxtail (Setaria faberii); assay: Test A postemergence; conditions: Setaria faberi, post-emergence, 240 h
Summary of the method: as §1

[8] = test system: blackgrass (Alopecurus myosuroides); assay: Test A postemergence; conditions: Alopecurus myosuroides, post-emergence, 240 h
Summary of the method: as §1

[9] = test system: ragweed (common ragweed, Ambrosia elatior); assay: Test A postemergence; conditions: Ambrosia artemisiifolia, post-emergence, 240 h
Summary of the method: as §1

Kochia (Kochia scoparia) [10] = assay: Test A preemergence; conditions: Bassia scoparia, pre-emergence, 240 h, 0 to 100 scale where 0 is no effect and 100 is complete control, read-out: Kochia plant response rating
Summary of the method: as §1

[11] = test system: barnyardgrass (Echinochloa crus-galli); assay: Test A preemergence; conditions: Echinochloa crus-galli, pre-emergence, 240 h, 0 to 100 scale where 0 is no effect and 100 is complete control, read-out: Barnyardgrass plant response rating
Summary of the method: as §1

[12] = test system: pigweed (Amaranthus retroflexus); assay: Test A preemergence; conditions: Amaranthus retroflexus, pre-emergence, 240 h, 0 to 100 scale where 0 is no effect and 100 is complete control, read-out: Pigweed plant response rating
[13] = test system: ryegrass, Italian (Italian ryegrass, Lolium multiflorum); assay: Test A preemergence; conditions: Lolium multiflorum, pre-emergence, 240 h, 0 to 100 scale where 0 is no effect and 100 is complete control, read-out: Ryegrass, Italian plant response rating
Summary of the method: as §1

[14] = test system: giant foxtail (Setaria faberii); assay: Test A preemergence; conditions: Setaria faberi, pre-emergence, 240 h, 0 to 100 scale where 0 is no effect and 100 is complete control, read-out: Foxtail, Giant plant response rating
Summary of the method: as §1

[15] = test system: ragweed (common ragweed, Ambrosia elatior); assay: Test A preemergence; conditions: Ambrosia artemisiifolia, pre-emergence, 240 h, 0 to 100 scale where 0 is no effect and 100 is complete control, read-out: Ragweed plant response rating
Summary of the method: as §1

[16] = test system: barnyardgrass (Echinochloa crus-galli); assay: Test B flooded paddy test; conditions: Echinochloa crus-galli, 250 g ai/ha, Flood; 0 to 100 scale where 0 is no effect and 100 is complete control; read-out: Barnyardgrass plant response rating
Summary of the method: (§2)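 Greenhouse paddy pots with 2-leaf stage plants received compound by direct addition to floodwater 3 cm deep, kept at that level. Scored visually at 13–15 d versus controls (0 no effect; 100 complete control).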

[17] = test system: sedge, umbrella (small-flower umbrella sedge, Cyperus difformis); assay: Test B flooded paddy test; conditions: Cyperus difformis, 250 g ai/ha, Flood; 0 to 100 scale where 0 is no effect and 100 is complete control; read-out: Sedge, Umbrella plant response rating
Summary of the method: as §2

rice (Oryra sativa) = assay: Test B flooded paddy test; conditions: Oryza sativa, 250 g ai/ha, Flood; 0 to 100 scale where 0 is no effect and 100 is complete control; read-out: Rice plant response rating
Summary of the method: as §2

[18] = test system: ducksalad (Heteranthera limosa); assay: Test B flooded paddy test; conditions: Heteranthera limosa, 250 g ai/ha, Flood; 0 to 100 scale where 0 is no effect and 100 is complete control; read-out: Ducksalad plant response rating
Summary of the method: as §2

[19] = 125 g ai/ha, preemergence, approx. 10 d

CN1C[C@H](c2cc(C(F)F)cs2)[C@@H](C(=O)Nc2ccccc2S(C)(=O)=O)C1=O [Compound 1084]
pest or weed control at 125 g/ha (Kochia (Kochia scoparia) [1]; 125 g ai/ha, postemergence, visual injury on 0 to 100 scale (0 no effect, 100 complete control), approx. 10 d, read-out: Kochia plant response rating): 30% | pest or weed control at 31 g/ha (Kochia (Kochia scoparia) [1]; Postemergence, 31 g ai/ha, visual injury after approx. 10 d, 0 to 100 scale, 0 no effect, 100 complete control, read-out: Plant response rating, Kochia): 0% | pest or weed control at 125 g/ha ([2]; 125 g ai/ha, postemergence, visual injury on 0 to 100 scale (0 no effect, 100 complete control), approx. 10 d, read-out: Galium plant response rating): 0% | pest or weed control at 31 g/ha ([2]; Postemergence, 31 g ai/ha, visual injury after approx. 10 d, 0 to 100 scale, 0 no effect, 100 complete control, read-out: Plant response rating, Galium): 0% | pest or weed control at 125 g/ha ([3]; 125 g ai/ha, postemergence, visual injury on 0 to 100 scale (0 no effect, 100 complete control), approx. 10 d, read-out: Barnyardgrass plant response rating): 60% | pest or weed control at 31 g/ha ([3]; Postemergence, 31 g ai/ha, visual injury after approx. 10 d, 0 to 100 scale, 0 no effect, 100 complete control, read-out: Plant response rating, Barnyardgrass): 10% | plant injury at 125 g/ha (corn (Zea mays); 125 g ai/ha, postemergence, visual injury on 0 to 100 scale (0 no effect, 100 complete control), approx. 10 d, read-out: Corn plant response rating): 0% | Corn plant response rating (crop injury, 0 = no effect, 100 = complete kill) at 31 g/ha (corn (Zea mays); Postemergence, 31 g ai/ha, visual injury after approx. 10 d, 0 to 100 scale, 0 no effect, 100 complete control): 0% | pest or weed control at 125 g/ha ([4]; 125 g ai/ha, postemergence, visual injury on 0 to 100 scale (0 no effect, 100 complete control), approx. 10 d, read-out: Pigweed plant response rating): 0% | pest or weed control at 31 g/ha ([4]; Postemergence, 31 g ai/ha, visual injury after approx. 10 d, 0 to 100 scale, 0 no effect, 100 complete control, read-out: Plant response rating, Pigweed): 0% | plant injury at 125 g/ha ([5]; 125 g ai/ha, postemergence, visual injury on 0 to 100 scale (0 no effect, 100 complete control), approx. 10 d, read-out: Wheat plant response rating): 20% | plant injury at 31 g/ha ([5]; Postemergence, 31 g ai/ha, visual injury after approx. 10 d, 0 to 100 scale, 0 no effect, 100 complete control, read-out: Plant response rating, Wheat): 0% | pest or weed control at 125 g/ha ([6]; 125 g ai/ha, postemergence, visual injury on 0 to 100 scale (0 no effect, 100 complete control), approx. 10 d, read-out: Ryegrass, Italian plant response rating): 0% | pest or weed control at 31 g/ha ([6]; Postemergence, 31 g ai/ha, visual injury after approx. 10 d, 0 to 100 scale, 0 no effect, 100 complete control, read-out: Plant response rating, Ryegrass, Italian): 0% | pest or weed control at 125 g/ha ([7]; 125 g ai/ha, postemergence, visual injury on 0 to 100 scale (0 no effect, 100 complete control), approx. 10 d, read-out: Foxtail, Giant plant response rating): 50% | pest or weed control at 31 g/ha ([7]; Postemergence, 31 g ai/ha, visual injury after approx. 10 d, 0 to 100 scale, 0 no effect, 100 complete control, read-out: Plant response rating, Foxtail, Giant): 0% | pest or weed control at 125 g/ha ([8]; 125 g ai/ha, postemergence, visual injury on 0 to 100 scale (0 no effect, 100 complete control), approx. 10 d, read-out: Blackgrass plant response rating): 20% | pest or weed control at 31 g/ha ([8]; Postemergence, 31 g ai/ha, visual injury after approx. 10 d, 0 to 100 scale, 0 no effect, 100 complete control, read-out: Plant response rating, Blackgrass): 0% | pest or weed control at 125 g/ha ([9]; 125 g ai/ha, postemergence, visual injury on 0 to 100 scale (0 no effect, 100 complete control), approx. 10 d, read-out: Ragweed plant response rating): 0% | pest or weed control at 31 g/ha ([9]; Postemergence, 31 g ai/ha, visual injury after approx. 10 d, 0 to 100 scale, 0 no effect, 100 complete control, read-out: Plant response rating, Ragweed): 0% | pest or weed control at 31 g/ha (Kochia (Kochia scoparia) [10]; 31 g ai/ha, Preemergence): 0% | pest or weed control at 125 g/ha (Kochia (Kochia scoparia) [10]; [19]): 20% | pest or weed control at 31 g/ha ([11]; 31 g ai/ha, Preemergence): 0% | pest or weed control at 125 g/ha [11, 19]: 70% | pest or weed control at 31 g/ha ([12]; 31 g ai/ha, Preemergence): 0% | pest or weed control at 125 g/ha [12, 19]: 0% | pest or weed control at 31 g/ha ([13]; 31 g ai/ha, Preemergence): 0% | pest or weed control at 125 g/ha [13, 19]: 10% | pest or weed control at 31 g/ha ([14]; 31 g ai/ha, Preemergence): 30% | pest or weed control at 125 g/ha [14, 19]: 100% | pest or weed control at 31 g/ha ([15]; 31 g ai/ha, Preemergence): 0% | pest or weed control at 125 g/ha [15, 19]: 10% | pest or weed control at 250 g/ha [16]: 75% | pest or weed control at 250 g/ha [17]: 0% | pest or weed control at 250 g/ha (rice (Oryra sativa)): 20% | pest or weed control at 250 g/ha [18]: 100%
